The values below come from patent publication US6372727B1, “Metalloporphyrin treatment of neurologic disease” (UAB Research Foundation, priority 1999, dated 2002).

Data set [1] in a line: Solubility and passage of membranes (statement). In kind it is physicochemical.
For data set [2] the following is noted: 100 μM DCDHF, pH 7.4, 37° C. On the procedure: A 14.5 mM stock solution of 2,7-dichlorodihydrofluorescein was prepared as described (24). Reaction solutions were prepared in rapidly stirred glass cuvettes and contained 100 μM of DCDHF and 2 μM of the indicated MP in 1.4 ml of 0.1 M potassium phosphate, pH 7.4 at 37° C. Peroxynitrite was added sequentially to rapidly stirred cuvettes; three seperate additions of 2 μM peroxynitrite were made followed by three seperate additions of 4 μM each (see Inset). DCDHF oxidation to dichlorofluorescein (DCF) was monitored at 500 nm (59,500 M^−1cm^−1) (24). Oxidative efficiency was defined as the moles of DCF formed per mole of peroxynitrite added and was determined for each peroxynitrite addition. The values shown represent the average of all six additions.
Dichlorodihydrofluorescein (DCDHF) undergoes a two-electron oxidation to yield the highly absorbing (and fluorescent) product dichlorofluorescein (DCF). DCDHF has been shown previously to be oxidized at an efficiency as high as 38% of added peroxynitrite (24) and was used here as an indicator to detect any changes in the total oxidative yield of peroxynitrite caused by metalloporphyrins.

Data set [3] can be described thus: Oxidation of metalloporphyrins by peroxynitrite, stopped-flow spectroscopy. In kind it is biochemical. As to conditions: 37° C., 0.1 M potassium phosphate pH 7.4, pseudo-first order, ± standard error. How it is done:
Peroxynitrite (in 10 mM NaOH) was rapidly mixed with the indicated MPs in 0.1 M potassium phosphate, pH 7.4 at 37° C. using a stopped-flow apparatus as described in Methods. […] A final concentration of 40 μM peroxynitrite was added to 8 μM of each of the MPs MnTBAP, MnPPIX, and FePPIX. […] INSET: Apparent rate constants for oxidation of 8 μM MnTBAP are plotted as a function of peroxynitrite concentration to illustrate how the rate constants listed in Table III were determined.
Rates of metal loporphyrin oxidation by peroxynitrite were determined using a Bio Sequential SX-18MV Applied Photophysics stopped-flow spectrofluorometer. Solutions of metalloporphyrins in 0.1 M potassium phosphate buffer, pH 7.4 were placed in one syringe and solutions of peroxynitrite in 10 mM NaOH were placed in a second syringe, both of which were submerged in a water bath at 37° C. Changes in metalloporphyrin absorbance as a function of time were recorded following triggering of syringe firing and solution mixing (instrument dead time=2 msec); a total of 1000 data points were collected over intervals ranging from 50 msec to 3 sec. […] Because the absorbance changes associated with loss of +3 forms were greater, rates of metalloporphyrin oxidation were determined by monitoring the disappearance of Mn(III)TMPyP at 462 nm, Mn(III)TBAP at 468 nm, Mn(III)PPIX at 466 nm, and Fe(III)PPIX at 464 nm. Absorbance changes as a function of time were fitted to the equation describing a first order process. The concentration of peroxynitrite was varied from five-fold to forty-fold greater than the fixed metalloporphyrin concentration in order to obtained pseudo first-order conditions (see Table III). Each concentration was injected 10 times and data were averaged automatically prior to fitting.
Rate constants for stoichiometric metalloporphyrin oxidation by peroxynitrite at 37° C. were determined under pseudo-first order reaction conditions by varying the amount of peroxynitrite added to a fixed concentration of metalloporphyrin (Table III).
In Table III, the rate of peroxynitrite-mediated oxidation of metalloporphyrins at 37° C. was determined. Apparent rate constants were determined by stopped-flow spectroscopy and plotted versus the peroxynitrite concentration (as shown for MnTBAP in FIG. 4 inset) to determine the bimolecular rate constant in M^−1s^−1±standard error. FePPIX was monitored at 387 nm, MnPPIX at 464 nm, and MnTBAP at 470 nm.

For data set [4] the following is noted: MP 5 μM, GSH 2 mM, 0.1 M potassium phosphate pH 7.4, 37° C. On the procedure: Aliquots (14 μl) were removed at 10 min intervals and added to 1.4 of 0.1 M potassium phosphate, pH 7.4 containing 0.2 mM dithionitrobenzoic acid (Ellman's Reagent) and 50 μM EDTA. GSH concentration was determined by the change in 430 nm absorbance. The extinction coefficient at 430 nm was determined to be 13,900 M^−1cm^−1 using a fresh GSH solution standardized by weight.
In order to test the hypothesis that Mn(II)- or Fe(II)-porphyrins would be capable of carrying out two-electron reductions of peroxynitrite and thereby decreasing rather than increasing its reactivity, attempts were made to pre-reduce these transition metal-containing MPs prior to addition of peroxynitrite.

Turning to `O=C(O)c1ccc(-c2c3nc(c(-c4ccc(C(=O)O)cc4)c4ccc([n-]4)c(-c4ccc(C(=O)O)cc4)c4nc(c(-c5ccc(C(=O)O)cc5)c5ccc2[n-]5)C=C4)C=C3)cc1.[Fe+2]` [FeTCPP, Iron (III) meso 5,10,15,20-tetrakis-(4-carboxy-phenyl) porphyrin], in data set [1], the “passage of cell membranes and the blood-brain-barrier” value was “readily cross cell membranes and the blood-brain-barrier”; the water solubility result is recorded as “very water soluble”.
In the case of `C[n+]1ccc(-c2c3nc(c(-c4cc[n+](C)cc4)c4ccc([n-]4)c(-c4cc[n+](C)cc4)c4nc(c(-c5cc[n+](C)cc5)c5ccc2[n-]5)C=C4)C=C3)cc1.[Cl-].[Cl-].[Cl-].[Cl-].[Cl-].[Mn+3]` [MnTMPyP, Manganese (III) meso-tetra-(N-methyl-4-pyridyl)-porphine chloride], in data set [2], the “increase of total oxidant yield from peroxynitrite” value is 2.2 fold and the “oxidant yield, of added peroxynitrite” value stood at 83%. The “Rate Constants for Oxidation of MPs by Peroxynitrite” value in data set [3] stood at 3.6e+06 M⁻¹ s⁻¹. Besides, the “rate of GSH oxidation” value in data set [4] was determined as 22 µM/min.
